Earlier results, collected in patent US20060189586A1, “Pharmaceutical compositions comprising active vitamin D compounds” (priority 2003, published 2006).

Conditions: in vivo

Row | Hypercalcemic effect compared to calcitriol | SMILES
1 | reduced hypercalcemic effect | C=C1/C(=C/C=C2\CCC[C@]3(C)C([C@H](C)CC#CC(O)(C(F)(F)F)C(F)(F)F)=CC[C@@H]23)C[C@@H](O)C[C@@H]1O [Ro24-5531]
2 | reduced hypercalcemic effect | C=C1/C(=C\C=C2/CCC[C@]3(C)C([C@H](C)CC#CC(C)(C)O)=CC[C@@H]23)C[C@@H](O)C[C@@H]1O [Ro23-7553]
